PubChem BioAssay (NCI)
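Step 1: Grow cells in 96-well plates. Step 2: Expose to compound for 48 hours at 5 concentrations. Step 3: Interpolate endpoints linearly; if unreached, use highest concentration. The concentration for full growth arrest is given as TGI.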

Key:
Assay in all cases: NCI-60 cell line screen, 48 h
[1] = system: CAKI-1 renal
[2] = system: ACHN renal
[3] = system: MALME-3M melanoma
[4] = system: HL-60(TB) leukemia
[5] = system: SNB-19 CNS
[6] = system: A498 renal
[7] = system: NCI-H460 lung
[8] = system: EKVX NSCLC
[9] = system: MDA-MB-231 breast
[10] = system: NCI-H226 lung
[11] = system: DU-145 prostate
[12] = system: SK-MEL-2 melanoma
[13] = system: CCRF-CEM leukemia
[14] = system: HS 578T breast
[15] = system: SW-620 colon
[16] = system: OVCAR-4 ovarian
[17] = system: OVCAR-3 ovarian
[18] = system: SR leukemia
[19] = system: SK-MEL-5 melanoma
[20] = system: LOX IMVI melanoma
[21] = system: HT29 colon
[22] = system: NCI-H522 lung
[23] = system: SF-268 CNS
[24] = system: UACC-257 melanoma
[25] = system: SNB-75 CNS
[26] = system: RPMI-8226 leukemia
[27] = system: OVCAR-5 ovarian
[28] = system: SF-539 CNS
[29] = system: OVCAR-8 ovarian
[30] = system: NCI-H23 lung
[31] = system: IGROV1 ovarian
[32] = system: SF-295 CNS
[33] = system: SN12C renal
[34] = system: T-47D breast
[35] = system: HCT-15 colon
[36] = system: MCF7 breast
[37] = system: UO-31 renal
[38] = system: HOP-92 NSCLC
[39] = system: MDA-N
[40] = system: SK-MEL-28 melanoma
[41] = system: TK-10 renal
[42] = system: U251 CNS
[43] = system: HCC-2998 colon
[44] = system: KM12 colon
[45] = system: COLO 205 colon
[46] = system: HCT-116 colon
[47] = system: HOP-62 NSCLC
[48] = system: UACC-62 melanoma
[49] = system: MOLT-4 leukemia
[50] = system: A549 NSCLC
[51] = system: SK-OV-3 ovarian
[52] = system: RXF 393 renal
[53] = system: MDA-MB-435
[54] = system: K-562 leukemia
[55] = system: 786-0 renal
[56] = system: BT-549 breast
[57] = system: PC-3 prostate
[58] = system: NCI/ADR-RES ovarian
[59] = system: M14 melanoma

With `CC1(C)C/C=C\CCC(O)C(O)CCC(C)(C)C1=O` (centres undefined) as the molecule, how does the TGI [1] read?
Its TGI is over 100 µM.

And the TGI [2]?
Its TGI is over 100 µM.

What about the TGI [3] of the same molecule?
The TGI was over 100 µM.

What about the TGI [4] of the same molecule?
Its TGI is over 100 µM.

What about the TGI [5] of the same molecule?
Its TGI is over 100 µM.

And the TGI [6]?
Its TGI is over 100 µM.

And the TGI [7]?
The TGI was over 100 µM.

What about the TGI [8] of the same molecule?
Its TGI is over 100 µM.

And the TGI [9]?
Its TGI is over 100 µM.

And the TGI [10]?
Its TGI is over 100 µM.

And the TGI [11]?
Its TGI is over 100 µM.

And the TGI [12]?
Its TGI is over 100 µM.

And the TGI [13]?
The TGI was over 100 µM.

And the TGI [14]?
Its TGI is over 100 µM.

What about the TGI [15] of the same molecule?
The TGI was over 100 µM.

And the TGI [16]?
The TGI was over 100 µM.

What about the TGI [17] of the same molecule?
Its TGI is over 100 µM.

And the TGI [18]?
Its TGI is over 100 µM.

And the TGI [19]?
The TGI was over 100 µM.

And the TGI [20]?
The TGI was over 100 µM.

And the TGI [21]?
Its TGI is over 100 µM.

What about the TGI [22] of the same molecule?
The TGI was over 100 µM.

What about the TGI [23] of the same molecule?
The TGI was over 100 µM.

What about the TGI [24] of the same molecule?
The TGI was over 100 µM.

And the TGI [25]?
The TGI was over 100 µM.

And the TGI [26]?
The TGI was over 100 µM.

What about the TGI [27] of the same molecule?
The TGI was over 100 µM.

What about the TGI [28] of the same molecule?
Its TGI is over 100 µM.

And the TGI [29]?
Its TGI is over 100 µM.

What about the TGI [30] of the same molecule?
Its TGI is over 100 µM.

What about the TGI [31] of the same molecule?
The TGI was over 100 µM.

What about the TGI [32] of the same molecule?
The TGI was over 100 µM.

And the TGI [33]?
Its TGI is over 100 µM.

And the TGI [34]?
The TGI was over 100 µM.

What about the TGI [35] of the same molecule?
The TGI was over 100 µM.

What about the TGI [36] of the same molecule?
The TGI was over 100 µM.

And the TGI [37]?
The TGI was over 100 µM.

What about the TGI [38] of the same molecule?
Its TGI is over 100 µM.

And the TGI [39]?
The TGI was over 100 µM.

What about the TGI [40] of the same molecule?
Its TGI is over 100 µM.

What about the TGI [41] of the same molecule?
Its TGI is over 100 µM.

What about the TGI [42] of the same molecule?
Its TGI is over 100 µM.

What about the TGI [43] of the same molecule?
The TGI was over 100 µM.

And the TGI [44]?
The TGI was over 100 µM.

What about the TGI [45] of the same molecule?
Its TGI is over 100 µM.

And the TGI [46]?
Its TGI is over 100 µM.

What about the TGI [47] of the same molecule?
Its TGI is over 100 µM.

And the TGI [48]?
Its TGI is over 100 µM.

And the TGI [49]?
Its TGI is over 100 µM.

And the TGI [50]?
Its TGI is over 100 µM.

And the TGI [51]?
Its TGI is over 100 µM.

And the TGI [52]?
Its TGI is over 100 µM.

And the TGI [53]?
The TGI was over 100 µM.

What about the TGI [54] of the same molecule?
The TGI was over 100 µM.

And the TGI [55]?
Its TGI is over 100 µM.

And the TGI [56]?
Its TGI is over 100 µM.

And the TGI [57]?
The TGI was over 100 µM.

And the TGI [58]?
Its TGI is over 100 µM.

With `Cc1nc2c(ccc3[nH]c4ccccc4c32)s1` as the molecule, how does the TGI [1] read?
The TGI was over 100 µM.

And the TGI [2]?
The TGI was over 100 µM.

And the TGI [3]?
Its TGI is over 100 µM.

What about the TGI [4] of the same molecule?
Its TGI is over 100 µM.

And the TGI [5]?
The TGI was over 100 µM.

And the TGI [6]?
Its TGI is 34.9 µM.

And the TGI [7]?
Its TGI is 79.4 µM.

What about the TGI [8] of the same molecule?
The TGI was 69.1 µM.

What about the TGI [9] of the same molecule?
The TGI was 36.4 µM.

What about the TGI [10] of the same molecule?
Its TGI is 98.7 µM.

And the TGI [11]?
The TGI was over 100 µM.

What about the TGI [12] of the same molecule?
Its TGI is 54.7 µM.

What about the TGI [13] of the same molecule?
The TGI was over 100 µM.

What about the TGI [14] of the same molecule?
The TGI was 46.5 µM.

What about the TGI [15] of the same molecule?
The TGI was 45.4 µM.

And the TGI [59]?
Its TGI is 50.2 µM.

What about the TGI [16] of the same molecule?
The TGI was over 100 µM.

What about the TGI [17] of the same molecule?
Its TGI is 64.1 µM.

And the TGI [18]?
Its TGI is 87.8 µM.

And the TGI [19]?
The TGI was 29.6 µM.

And the TGI [21]?
The TGI was 31.3 µM.

What about the TGI [22] of the same molecule?
Its TGI is 35 µM.

What about the TGI [23] of the same molecule?
Its TGI is over 100 µM.

And the TGI [24]?
Its TGI is over 100 µM.

What about the TGI [25] of the same molecule?
The TGI was over 100 µM.

What about the TGI [27] of the same molecule?
Its TGI is over 100 µM.

What about the TGI [28] of the same molecule?
Its TGI is over 100 µM.

And the TGI [29]?
The TGI was over 100 µM.

And the TGI [30]?
The TGI was 91.7 µM.

What about the TGI [31] of the same molecule?
Its TGI is over 100 µM.

What about the TGI [33] of the same molecule?
The TGI was 76.9 µM.

What about the TGI [34] of the same molecule?
Its TGI is over 100 µM.

What about the TGI [35] of the same molecule?
The TGI was 51.9 µM.

And the TGI [36]?
Its TGI is over 100 µM.

And the TGI [37]?
The TGI was 74.8 µM.

What about the TGI [38] of the same molecule?
Its TGI is 45.4 µM.

What about the TGI [39] of the same molecule?
The TGI was over 100 µM.

And the TGI [40]?
Its TGI is 60.3 µM.

And the TGI [41]?
Its TGI is 78.1 µM.

And the TGI [42]?
Its TGI is 54.3 µM.

And the TGI [43]?
The TGI was 30.2 µM.

And the TGI [44]?
The TGI was 56.5 µM.

What about the TGI [45] of the same molecule?
The TGI was 37.8 µM.

What about the TGI [46] of the same molecule?
Its TGI is 37.2 µM.

And the TGI [47]?
The TGI was 40 µM.

And the TGI [48]?
The TGI was 41.2 µM.

What about the TGI [49] of the same molecule?
Its TGI is 86.2 µM.

What about the TGI [50] of the same molecule?
Its TGI is over 100 µM.

What about the TGI [51] of the same molecule?
The TGI was over 100 µM.

What about the TGI [52] of the same molecule?
Its TGI is over 100 µM.

What about the TGI [53] of the same molecule?
Its TGI is 64.7 µM.

What about the TGI [54] of the same molecule?
The TGI was over 100 µM.

And the TGI [55]?
The TGI was over 100 µM.

What about the TGI [56] of the same molecule?
Its TGI is 57.3 µM.

What about the TGI [57] of the same molecule?
Its TGI is 47.9 µM.

And the TGI [58]?
Its TGI is over 100 µM.
